Structures can show the parent of a compound that is named as a salt. A value given as a limit tells only on which side of the number the result lay.

On to `COc1nc2ccc(Br)cc2cc1C(c1cccc(Cl)c1)C1(O)CCNC(c2ccc(F)cc2C)C1` (stereo not drawn) (as salt: fumarate) [Compound 149], for which the melting point turned out to be 178 °C.
`COc1nc2ccc(Br)cc2cc1C(c1cccc(Cl)c1)C1(O)CCNC(c2ccc(F)cc2C)C1` (stereo not drawn) (as salt: fumarate) [Compound 150]: the melting point came out at 184 °C.
As for `COc1nc2ccc(Br)cc2cc1C(c1cccc(Cl)c1)C1(O)CCNC(c2ccc(F)cc2C)C1` (stereo not drawn) (as salt: fumarate) [Compound 151], the melting point worked out at 156 °C.
For the compound `COc1nc2ccc(Br)cc2cc1C(c1cccc(Cl)c1)C1(O)CCNC(c2ccc(F)cc2C)C1` (stereo not drawn) (as salt: fumarate) [Compound 152], the melting point was determined as 170 °C.
To `COc1nc2ccc(SC)cc2cc1C(c1cccc(Cl)c1)C1(O)CCNC(c2ccc(F)cc2C)C1` (stereo not drawn) (as salt: fumarate) [Compound 164] belongs 170 °C; to `COc1nc2ccc(SC)cc2cc1C(c1cccc(Cl)c1)C1(O)CCNC(c2ccc(F)cc2C)C1` (stereo not drawn) (as salt: fumarate) [Compound 165], 168 °C.
To `COc1nc2ccc(SC)cc2cc1C(c1ccccc1)C1(O)CCNC(c2ccc(F)cc2C)C1` (stereo not drawn) (as salt: fumarate) [Compound 170] belongs 176 °C.
As to `COc1nc2ccc(S(C)(=O)=O)cc2cc1C(c1ccc(Cl)cc1)C1(O)CCNC(c2ccc(F)cc2C)C1` (stereo not drawn) (as salt: fumarate) [Compound 201], the melting point is 195 °C.
The compound `CS(=O)(=O)c1ccc2[nH]c(=O)c(C(c3ccc(Cl)cc3)C3(O)CCNC(Cc4ccc(F)c(F)c4)C3)cc2c1` (stereo not drawn) (as salt: fumarate) [Compound 214] registered a melting point of 213 °C.
`COc1nc2ccc(SC)cc2cc1C(c1ccc(Cl)cc1)C1(O)CCNCC1Cc1cccc(F)c1` (stereo not drawn) (as salt: fumarate) [Compound 284] registered a melting point of 163 °C.
`COc1nc2ccc(SC)cc2cc1C(c1ccc(Cl)cc1)C1(O)CCNCC1Cc1cccc(F)c1` (stereo not drawn) (as salt: fumarate) [Compound 286]: the melting point was determined as 177 °C.
As to `COc1nc2ccc(SC)cc2cc1C(c1ccc(Cl)cc1)C1(O)CCNC(CC2CCCCC2)C1` (stereo not drawn) (as salt: fumarate) [Compound 288], the melting point is 150 °C.
To `COc1nc2ccc(F)cc2cc1C(c1ccc(Cl)cc1)C1(O)CCNC(c2ccc(F)cc2C)C1` (stereo not drawn) (as salt: fumarate) [Compound 330] belongs 170 °C.
Turning to `COc1nc2ccc(F)cc2cc1C(c1ccc(Cl)cc1)C1(O)CCNC(c2ccc(F)cc2C)C1` (stereo not drawn) (as salt: fumarate) [Compound 331], the melting point was determined as 166 °C.
To `COc1nc2ccc(F)cc2cc1C(c1ccc(Cl)cc1)C1(O)CCNC(c2ccc(F)cc2C)C1` (stereo not drawn) (as salt: fumarate) [Compound 332] belongs 164 °C; to `COc1nc2ccc(Cl)cc2cc1C(c1ccc(Cl)cc1)C1(O)CCNC(Cc2ccc(F)cc2)C1` (stereo not drawn) (as salt: fumarate) [Compound 345], 152 to 154 °C.
To `COc1nc2ccc(Cl)cc2cc1C(c1ccc(Cl)cc1)C1(O)CCNC(Cc2ccc(F)cc2)C1` (stereo not drawn) (as salt: fumarate) [Compound 346] belongs 151 to 153 °C.
As for `COc1nc2ccc(Cl)cc2cc1C(c1ccc(Cl)cc1)C1(O)CCNC(Cc2ccc(F)cc2)C1` (stereo not drawn) (as salt: fumarate) [Compound 347], the melting point was 148 to 150 °C.
To `COc1nc2ccc(Cl)cc2cc1C(c1ccc(Cl)cc1)C1(O)CCNC(Cc2ccc(F)cc2)C1` (stereo not drawn) (as salt: fumarate) [Compound 348] belongs 145 °C.
For the compound `COc1nc2ccc(Cl)cc2cc1C(c1ccc(SC)cc1)C1(O)CCNC(c2ccc(F)cc2C)C1` (stereo not drawn) (as salt: fumarate) [Compound 353], the melting point fell in the range of 166 to 168 °C.
In turn, `COc1nc2ccc(Cl)cc2cc1C(c1ccc(SC)cc1)C1(O)CCNC(c2ccc(F)cc2C)C1` (stereo not drawn) (as salt: fumarate) [Compound 354] gave a melting point of 168 to 170 °C.
The result for `COc1nc2ccc(Cl)cc2cc1C(c1ccc(S(C)(=O)=O)cc1)C1(O)CCNC(c2ccc(F)cc2C)C1` (stereo not drawn) (as salt: fumarate) [Compound 368] reads 144 °C.
The compound `COc1nc2ccc(Cl)cc2cc1C(c1ccc(S(C)(=O)=O)cc1)C1(O)CCNC(c2ccc(F)cc2C)C1` (stereo not drawn) (as salt: fumarate) [Compound 369] returned a melting point of 138 °C.
`COc1nc2ccccc2cc1C(c1ccccc1)C1(O)CCNC(Cc2ccccc2)C1` (stereo not drawn) (as salt: fumarate) [Compound 399] registered a melting point of 222 to 224 °C.
To `COc1nc2ccccc2cc1C(c1ccccc1)C1(O)CCNC(Cc2ccccc2)C1` (stereo not drawn) (as salt: fumarate) [Compound 400] belongs 157 °C; to `COc1nc2ccccc2cc1C(c1ccccc1)C1(O)CCNC(Cc2ccccc2)C1` (stereo not drawn) (as salt: fumarate) [Compound 401], 240 °C.
Regarding `COc1nc2ccccc2cc1C(c1ccccc1)C1(O)CCNC(Cc2ccccc2)C1` (stereo not drawn) (as salt: fumarate) [Compound 402], the melting point lay within 175 to 177 °C.
The result for `COc1nc2ccc(Cl)cc2cc1C(c1ccc(Cl)cc1)C1(O)CCNC(c2ccccc2)C1` (stereo not drawn) (as salt: fumarate) [Compound 403] reads 176 °C; that for `COc1nc2ccc(Cl)cc2cc1C(c1ccc(Cl)cc1)C1(O)CCNC(c2ccccc2)C1` (stereo not drawn) (as salt: fumarate) [Compound 404], 168 °C.
The result for `COc1nc2ccc(Cl)cc2cc1C(c1ccc(Cl)cc1)C1(O)CCNC(c2ccccc2)C1` (stereo not drawn) (as salt: fumarate) [Compound 405] reads 184 °C; that for `COc1ccc2nc(OC)c(C(c3ccccc3)C3(O)CCNC(Cc4ccccc4)C3)cc2c1` (stereo not drawn) (as salt: fumarate) [Compound 408], 135 °C.
To `COc1nc2ccc(Cl)cc2cc1C(c1ccc(Cl)cc1)C1(O)CCNCC1c1ccccc1` (stereo not drawn) (as salt: fumarate) [Compound 409] belongs 190 °C; to `COc1nc2ccc(Cl)cc2cc1C(c1ccc(Cl)cc1)C1(O)CCNCC1c1ccccc1` (stereo not drawn) (as salt: fumarate) [Compound 410], 155 °C.
On to `COc1nc2ccc(Cl)cc2cc1C(c1ccc(Cl)cc1)C1(O)CCNCC1c1ccccc1` (stereo not drawn) (as salt: fumarate) [Compound 411], for which the melting point turned out to be 168 °C.
Take `COc1nc2ccc(Cl)cc2cc1C(c1ccc(Cl)cc1)C1(O)CCNCC1c1ccccc1` (stereo not drawn) (as salt: fumarate) [Compound 412]: the melting point was found to be 166 °C.
The result for `COc1nc2ccccc2cc1C(c1ccccc1)C1(O)CCNC(c2ccccc2)C1` (stereo not drawn) (as salt: fumarate) [Compound 413] reads over 250 °C.
The result for `COc1nc2ccccc2cc1C(c1ccccc1)C1(O)CCNC(c2ccccc2)C1` (stereo not drawn) (as salt: fumarate) [Compound 414] reads 196 °C.
`COc1nc2ccccc2cc1C(c1ccccc1)C1(O)CCNC(c2ccccc2)C1` (stereo not drawn) (as salt: fumarate) [Compound 415] displayed a melting point of 160 °C.
To `COc1nc2ccccc2cc1C(c1ccccc1)C1(O)CCNC(c2ccc(F)cc2C)C1` (stereo not drawn) (as salt: fumarate) [Compound 416] belongs 160 to 162 °C.

A word on the melting point: it is the temperature of the solid-liquid transition.

For the origin of these results see US9617244B2, “Antibacterial quinoline derivatives” (JANSSEN PHARMACEUTICA NV, priority 2012, dated 2017).
